One molecule from patent US20250295795A1, “PEPTIDE” (priority 2021, published 2025) can be followed below.

Each structure is given as a SMILES string.

Holding throughout (assay type): cell-based, human
Assay [1] concerns HeLa cells. Put plainly: Co-delivery of antibodies, antibody fragments and RFP into live Hela cells. The source says:
Access to the cytosol by mechanisms that are independent of transmembrane pore formation constitutes a preferred method of co-delivery due to reduced toxicity to the cell. […] Successful delivery of Fab is indicated by homogenous distribution of AF647 signal in the cytosol and nucleus and is only observed in cells which have been transduced with tri-cTat B (FIG. 13). Time course of Fab uptake by tri-cTat B (FIG. 5c) follows a similar pattern as tri-cTat B alone (FIG. 3b, d). Tri-cTat B and Fab form large vesicle-like bodies that appear to release their contents into the cytosol of the cell; unambiguous cytosolic staining by Fab is observed from 23 min. Interaction between peptide trimer and biomacromolecule, mediated by charge-charge interactions is essential for the accumulation of both in endosomes and subsequent release and delivery of cargo into cells. Delivery of relatively β-sheet rich, neutrally charged recombinant RFP was unsuccessful (FIG. 16) due to a lack of association between tri-cTat B and cargo (FIG. 17). On the other hand, interaction diminishes the efficacy of the peptide trimer due to charge masking, emphasising the need to maintain an appropriate peptide to cargo ratio for a given macromolecule. Experiments to explore the efficacy of tri-cTat B in the presence of serum supplemented medium underline this principle; while tri-cTat B continues to function in the presence of serum, the number of transduced cells diminishes (42% (serum) vs. 61% (serum free)), but can be restored by increasing tri-cTat B concentration to 2 μM (79% (serum); FIG. 15). […] This is likely due to the larger size of antibodies and also to the observation that antibodies have a greater tendency to aggregate in the presence of tri-cTat B compared to Fab fragments. […] Finally, we investigated whether it is possible to deliver functional antibodies and antibody fragments into the cytosol and nuclei of cells. β-actin was chosen as a proof-of-principle protein because of its abundance in the cell and formation of distinctive subcellular filaments. To clearly identify actin filaments, Hela cells were transfected with red fluorescent protein fused to actin (actin-RFP) before being incubated with β-actin antibody (mouse IgG2b) or β-actin Fab fragment (mouse) conjugated to AF647 plus tri-cTat B for 30 min. After washing, cells were left for 60 min to allow IgG/Fab to bind to actin filaments. […] To enable objective quantification of co-localization between β-actin filaments and IgG/Fab fragment (white arrows), a co-localization threshold algorithm was used in selected regions of interest (ROI). Pearson's and Manders' coefficients were obtained under Costes' automatic threshold^32 and the co-localized pixels are shown as a mask of yellow pixels of constant intensity (co-localization panels). The significance of the co-localization parameters (Pearson's and Manders' coefficients) was evaluated using the confined displacement algorithm (CDA).
HeLa and CHO cells were cultured in DMEM supplemented with 10% FBS and penicillin/streptomycin. For post-wash experiments, Tat conjugate was added to the cells in serum free medium, cells incubated at 37° C. in an atmosphere of 5% CO2, culture medium removed at the desired time point, cells washed and transferred to the microscope for imaging. For time course or pre-wash experiments, cells were transferred to the microscope (incubation chamber at 37° C., 5% CO2) and Tat conjugate added directly to cell medium and cells imaged at desired time points. Co-delivery experiments were conducted by adding peptide trimer immediately followed by cargo into serum free medium. Samples were visualised using a Zeiss LSM 780 inverted confocal microscope fitted with a XLmultiS1 incubation chamber and Plan-Apochromat 63×/1.40 Oil DIC M27 objective. Images were analysed using ImageJ software. Digital adjustments and image processing are consistent throughout the manuscript, unless otherwise stated in the figure legend. […]

The subject of assay [2] is HeLa cells. Description: Time course of uptake in Hela cells (continuous live cell confocal microscopy, ROI profile analysis). The conditions noted are these: 1 μM; representative cells. Here is the method:
To better understand the mechanism by which tri-Tat A and tri-cTat B enter the cytosol and the nucleus, we investigated the uptake kinetics of the conjugates during the first 15 min after their addition to Hela cells using confocal live cell microscopy. Tri-Tat A (FIG. 3a) or tri-cTat B (FIG. 3b) (1 μM) were added to the cells and images acquired from 1 min to 15 min at 60 sec intervals. The two trimers show distinct uptake patters into Hela cells; to better understand the difference in uptake kinetics, we drew cross sectional profile plots through representative cells treated with tri-Tat A (FIG. 3c) and tri-cTat B (FIG. 3d). […] To investigate whether findings in individual cells also apply to larger populations, we extended the plot profile analysis by designating regions of interest (ROI) corresponding to plasma membrane, cytosol (excluding endosomes), nucleus, and nucleoli along the cross section, using information from brightfield images.^30 Average fluorescence intensities for each ROI, at each time point, in six cells per treatment group were calculated and plotted in FIGS. 3e-3h.
(§1) HeLa and CHO cells were cultured in DMEM supplemented with 10% FBS and penicillin/streptomycin. For post-wash experiments, Tat conjugate was added to the cells in serum free medium, cells incubated at 37° C. in an atmosphere of 5% CO2, culture medium removed at the desired time point, cells washed and transferred to the microscope for imaging. For time course or pre-wash experiments, cells were transferred to the microscope (incubation chamber at 37° C., 5% CO2) and Tat conjugate added directly to cell medium and cells imaged at desired time points. Co-delivery experiments were conducted by adding peptide trimer immediately followed by cargo into serum free medium. Samples were visualised using a Zeiss LSM 780 inverted confocal microscope fitted with a XLmultiS1 incubation chamber and Plan-Apochromat 63×/1.40 Oil DIC M27 objective. Images were analysed using ImageJ software. Digital adjustments and image processing are consistent throughout the manuscript, unless otherwise stated in the figure legend. Statistical analysis was carried out using GraphPad Prism 7 software and all data used for statistical analysis consists of measurements from distinct cells. Where applicable a parametric, unpaired, two-tailed t-test was used for statistical testing.

The test system of assay [3] is HeLa cells. Description: Live cell confocal microscopy: cellular uptake and intracellular distribution of Tat conjugates in HeLa cells. Here is the method:
The cellular uptake and intracellular distribution of Tat-trimers and monomeric controls was investigated by performing live cell confocal microscopy of HeLa (human, cervical cancer) and CHO (Chinese hamster, […]). Following washing, images were acquired using a Zeiss 780 confocal microscope fitted with an incubation chamber (FIG. 2). In accordance with observations that free Tat in the cytosol readily enters the nucleus and strongly binds to nucleoli,^29 homogenous staining of cytoplasm and nucleoli were considered as indicative of cells having accumulated free conjugate, not confined to endosomes, for quantification purposes. […] The uptake and intracellular distribution of tri-Tat A is similar in live Hela and CHO cells (FIG. 2b,d,e).
Following washing, images were acquired using a Zeiss 780 confocal microscope fitted with an incubation chamber. In accordance with observations that free Tat in the cytosol readily enters the nucleus and strongly binds to nucleoli,^29 homogenous staining of cytoplasm and nucleoli were considered as indicative of cells having accumulated free conjugate, not confined to endosomes, for quantification purposes. The results were compared to tri-Tat A (8) and tri-cTat B (17).
as §1

As for `N=C(N)NCCC[C@@H]1NC(=O)[C@H](CCCNC(=N)N)NC(=O)[C@H](CCCNC(=N)N)NC(=O)[C@H](CCC(N)=O)NC(=O)[C@H](CCCNC(=N)N)NC(=O)[C@H](CCCNC(=N)N)NC(=O)[C@H](CCCCN)NC(=O)[C@H](CCCCN)NC(=O)[C@H](CCCNC(=N)N)NC(=O)[C@H](CCCCn2cc(COCC(COCc3cn(CCCCCCNC(=O)c4ccc5c(c4)C(=O)OC54c5ccc(N)c(S(=O)(=O)O)c5Oc5c4ccc(N)c5S(=O)(=O)O)nn3)(COCc3cn(CCCC[C@@H]4NC(=O)CC[C@@H](C(N)=O)NC(=O)[C@H](CCCNC(=N)N)NC(=O)[C@H](CCCNC(=N)N)NC(=O)[C@H](CCCNC(=N)N)NC(=O)[C@H](CCC(N)=O)NC(=O)[C@H](CCCNC(=N)N)NC(=O)[C@H](CCCNC(=N)N)NC(=O)[C@H](CCCCN)NC(=O)[C@H](CCCCN)NC(=O)[C@H](CCCNC(=N)N)NC4=O)nn3)COCc3cn(CCCC[C@@H]4NC(=O)CC[C@@H](C(N)=O)NC(=O)[C@H](CCCNC(=N)N)NC(=O)[C@H](CCCNC(=N)N)NC(=O)[C@H](CCCNC(=N)N)NC(=O)[C@H](CCC(N)=O)NC(=O)[C@H](CCCNC(=N)N)NC(=O)[C@H](CCCNC(=N)N)NC(=O)[C@H](CCCCN)NC(=O)[C@H](CCCCN)NC(=O)[C@H](CCCNC(=N)N)NC4=O)nn3)nn2)NC(=O)CC[C@@H](C(N)=O)NC1=O` (stereo partly shown) [tri-cTat B], in the assay with HeLa cells [1] (166 nM IgG-AF647 + 1 μM trimer, 45 min), the “cells showing homogenous AF647 staining in cytosol and nucleus (whole IgG co-delivery)” value is recorded as “approximately 20%”. Also, the “cells with Fab delivered into cytosol and nucleus” value in the assay on HeLa cells [1] (500 nM AF647-labelled non-specific mouse Fab + 1 μM trimer, 30 min) was 50%. Also, the “time from which unambiguous cytosolic staining by Fab is observed” value in the assay with HeLa cells [1] (500 nM Fab-AF647 + 1 μM trimer) was 23 min. In the assay on HeLa cells [1] (1 μM trimer + 1 or 2 μM recombinant RFP, 30 min, serum free), the “delivery of recombinant RFP” value was “unsuccessful”. Moreover, the “association with plasma membrane (profile plots)” value with HeLa cells [2] is given as “little association with plasma membrane”. The “transduction efficacy in comparison (average fluorescence intensity per cell, percentage of transduced cells)” value in the assay on HeLa cells [3] (1 μM, 60 min, serum-free) was “more effective at cellular transduction in comparison to tri-cTat A”. Also, the “cellular uptake and intracellular distribution” value in the assay on HeLa cells [3] (HeLa cells, 1 μM, 60 min, serum-free DMEM, post-wash) was “taken up into the cytosol and nucleoli”. The “number of transduced cells” value in the assay on HeLa cells [3] (serum free, 1 μM) worked out at 61%; in the assay on HeLa cells [3] (serum supplemented medium, 1 μM, 60 min) it was 42%; in the assay on HeLa cells [3] (serum supplemented medium, 2 μM, 60 min) it was 79%.
